Data reported in the NIST ThermoML archive (doi:10.1016/j.jct.2012.03.003).
± gives the expanded uncertainty stated by the source.

Assay: xn = mol fraction of the nth substance listed
Conditions: Liquid, Vibrating tube method

COc1cc2c(cc1O)CC1c3c(cc(O)c(OC)c3-2)CCN1C (stereo not given) [boldine] + CCCO
Conditions	mass density [kg/m3]
313.09 K, 1000 kPa, x1 = 0.0142	812.51 ± 0.62
313.09 K, 2000 kPa, x1 = 0.0142	813.26 ± 0.62
313.09 K, 3000 kPa, x1 = 0.0142	814.02 ± 0.62
313.09 K, 4000 kPa, x1 = 0.0142	814.8 ± 0.63
313.09 K, 5000 kPa, x1 = 0.0142	815.58 ± 0.62
313.09 K, 6000 kPa, x1 = 0.0142	816.36 ± 0.63
313.09 K, 7000 kPa, x1 = 0.0142	817.15 ± 0.63
313.09 K, 8000 kPa, x1 = 0.0142	817.95 ± 0.63
313.09 K, 9000 kPa, x1 = 0.0142	818.75 ± 0.64
313.09 K, 10000 kPa, x1 = 0.0142	819.54 ± 0.64
313.09 K, 11000 kPa, x1 = 0.0142	820.32 ± 0.64
313.09 K, 12000 kPa, x1 = 0.0142	821.12 ± 0.64
313.09 K, 13000 kPa, x1 = 0.0142	821.89 ± 0.65
313.09 K, 14000 kPa, x1 = 0.0142	822.65 ± 0.65
313.09 K, 15000 kPa, x1 = 0.0142	823.42 ± 0.65
313.09 K, 16000 kPa, x1 = 0.0142	824.16 ± 0.66
313.09 K, 17000 kPa, x1 = 0.0142	824.91 ± 0.66
313.09 K, 18000 kPa, x1 = 0.0142	825.63 ± 0.66
313.09 K, 19000 kPa, x1 = 0.0142	826.34 ± 0.66
313.09 K, 20000 kPa, x1 = 0.0142	827.03 ± 0.67
313.14 K, 1000 kPa, x1 = 0.0046	797.2 ± 0.7
313.14 K, 2000 kPa, x1 = 0.0046	797.97 ± 0.7
313.14 K, 3000 kPa, x1 = 0.0046	798.75 ± 0.7
313.14 K, 4000 kPa, x1 = 0.0046	799.53 ± 0.7
313.14 K, 5000 kPa, x1 = 0.0046	800.32 ± 0.71
313.14 K, 6000 kPa, x1 = 0.0046	801.13 ± 0.71
313.14 K, 7000 kPa, x1 = 0.0046	801.93 ± 0.71
313.14 K, 8000 kPa, x1 = 0.0046	802.74 ± 0.71
313.14 K, 9000 kPa, x1 = 0.0046	803.55 ± 0.71
313.14 K, 10000 kPa, x1 = 0.0046	804.36 ± 0.72
313.14 K, 11000 kPa, x1 = 0.0046	805.17 ± 0.72
313.14 K, 12000 kPa, x1 = 0.0046	805.97 ± 0.72
313.14 K, 13000 kPa, x1 = 0.0046	806.77 ± 0.72
313.14 K, 14000 kPa, x1 = 0.0046	807.55 ± 0.73
313.14 K, 15000 kPa, x1 = 0.0046	808.32 ± 0.73
313.14 K, 16000 kPa, x1 = 0.0046	809.08 ± 0.73
313.14 K, 17000 kPa, x1 = 0.0046	809.85 ± 0.73
313.14 K, 18000 kPa, x1 = 0.0046	810.58 ± 0.74
313.14 K, 19000 kPa, x1 = 0.0046	811.3 ± 0.74
313.14 K, 20000 kPa, x1 = 0.0046	812.01 ± 0.75
313.15 K, 1000 kPa, x1 = 0.0018	790.99 ± 0.9
313.15 K, 1000 kPa, x1 = 0.0077	801.14 ± 0.67
313.15 K, 1000 kPa, x1 = 0.0112	807.94 ± 0.72
313.15 K, 2000 kPa, x1 = 0.0018	791.76 ± 0.9
313.15 K, 2000 kPa, x1 = 0.0077	801.89 ± 0.68
313.15 K, 2000 kPa, x1 = 0.0112	808.71 ± 0.72
313.15 K, 3000 kPa, x1 = 0.0018	792.55 ± 0.9
313.15 K, 3000 kPa, x1 = 0.0077	802.66 ± 0.68
313.15 K, 3000 kPa, x1 = 0.0112	809.47 ± 0.72
313.15 K, 4000 kPa, x1 = 0.0018	793.33 ± 0.9
313.15 K, 4000 kPa, x1 = 0.0077	803.44 ± 0.68
313.15 K, 4000 kPa, x1 = 0.0112	810.25 ± 0.72
313.15 K, 5000 kPa, x1 = 0.0018	794.13 ± 0.9
313.15 K, 5000 kPa, x1 = 0.0077	804.23 ± 0.68
313.15 K, 5000 kPa, x1 = 0.0112	811.06 ± 0.72
313.15 K, 6000 kPa, x1 = 0.0018	794.94 ± 0.91
313.15 K, 6000 kPa, x1 = 0.0077	805.03 ± 0.68
313.15 K, 6000 kPa, x1 = 0.0112	811.83 ± 0.73
313.15 K, 7000 kPa, x1 = 0.0018	795.75 ± 0.91
313.15 K, 7000 kPa, x1 = 0.0077	805.83 ± 0.69
313.15 K, 7000 kPa, x1 = 0.0112	812.63 ± 0.73
313.15 K, 8000 kPa, x1 = 0.0018	796.57 ± 0.91
313.15 K, 8000 kPa, x1 = 0.0077	806.63 ± 0.69
313.15 K, 8000 kPa, x1 = 0.0112	813.42 ± 0.73
313.15 K, 9000 kPa, x1 = 0.0018	797.38 ± 0.91
313.15 K, 9000 kPa, x1 = 0.0077	807.44 ± 0.69
313.15 K, 9000 kPa, x1 = 0.0112	814.2 ± 0.73
313.15 K, 10000 kPa, x1 = 0.0018	798.19 ± 0.91
313.15 K, 10000 kPa, x1 = 0.0077	808.25 ± 0.69
313.15 K, 10000 kPa, x1 = 0.0112	815 ± 0.73
313.15 K, 11000 kPa, x1 = 0.0018	799.01 ± 0.92
313.15 K, 11000 kPa, x1 = 0.0077	809.05 ± 0.69
313.15 K, 11000 kPa, x1 = 0.0112	815.81 ± 0.73
313.15 K, 12000 kPa, x1 = 0.0018	799.83 ± 0.92
313.15 K, 12000 kPa, x1 = 0.0077	809.85 ± 0.7
313.15 K, 12000 kPa, x1 = 0.0112	816.58 ± 0.74
313.15 K, 13000 kPa, x1 = 0.0018	800.62 ± 0.92
313.15 K, 13000 kPa, x1 = 0.0077	810.64 ± 0.7
313.15 K, 13000 kPa, x1 = 0.0112	817.36 ± 0.74
313.15 K, 14000 kPa, x1 = 0.0018	801.41 ± 0.92
313.15 K, 14000 kPa, x1 = 0.0077	811.41 ± 0.7
313.15 K, 14000 kPa, x1 = 0.0112	818.14 ± 0.74
313.15 K, 15000 kPa, x1 = 0.0018	802.19 ± 0.92
313.15 K, 15000 kPa, x1 = 0.0077	812.18 ± 0.7
313.15 K, 15000 kPa, x1 = 0.0112	818.89 ± 0.74
313.15 K, 16000 kPa, x1 = 0.0018	802.95 ± 0.92
313.15 K, 16000 kPa, x1 = 0.0077	812.94 ± 0.71
313.15 K, 16000 kPa, x1 = 0.0112	819.65 ± 0.75
313.15 K, 17000 kPa, x1 = 0.0018	803.72 ± 0.93
313.15 K, 17000 kPa, x1 = 0.0077	813.69 ± 0.71
313.15 K, 17000 kPa, x1 = 0.0112	820.39 ± 0.75
313.15 K, 18000 kPa, x1 = 0.0018	804.46 ± 0.93
313.15 K, 18000 kPa, x1 = 0.0077	814.42 ± 0.71
313.15 K, 18000 kPa, x1 = 0.0112	821.12 ± 0.75
313.15 K, 19000 kPa, x1 = 0.0018	805.19 ± 0.93
313.15 K, 19000 kPa, x1 = 0.0077	815.14 ± 0.72
313.15 K, 19000 kPa, x1 = 0.0112	821.85 ± 0.75
313.15 K, 20000 kPa, x1 = 0.0018	805.9 ± 0.93
313.15 K, 20000 kPa, x1 = 0.0077	815.85 ± 0.72
313.15 K, 20000 kPa, x1 = 0.0112	822.53 ± 0.75
323.1 K, 1000 kPa, x1 = 0.0018	782.67 ± 0.93
323.1 K, 2000 kPa, x1 = 0.0018	783.52 ± 0.93
323.1 K, 3000 kPa, x1 = 0.0018	784.36 ± 0.93
323.1 K, 4000 kPa, x1 = 0.0018	785.2 ± 0.93
323.1 K, 5000 kPa, x1 = 0.0018	786.06 ± 0.93
323.1 K, 6000 kPa, x1 = 0.0018	786.91 ± 0.93
323.1 K, 7000 kPa, x1 = 0.0018	787.78 ± 0.93
323.1 K, 8000 kPa, x1 = 0.0018	788.64 ± 0.93
323.1 K, 9000 kPa, x1 = 0.0018	789.49 ± 0.94
323.1 K, 10000 kPa, x1 = 0.0018	790.35 ± 0.94
323.1 K, 11000 kPa, x1 = 0.0018	791.2 ± 0.94
323.1 K, 12000 kPa, x1 = 0.0018	792.05 ± 0.94
323.1 K, 13000 kPa, x1 = 0.0018	792.88 ± 0.94
323.1 K, 14000 kPa, x1 = 0.0018	793.69 ± 0.94
323.1 K, 15000 kPa, x1 = 0.0018	794.51 ± 0.95
323.1 K, 16000 kPa, x1 = 0.0018	795.32 ± 0.95
323.1 K, 17000 kPa, x1 = 0.0018	796.1 ± 0.95
323.1 K, 18000 kPa, x1 = 0.0018	796.89 ± 0.95
323.1 K, 19000 kPa, x1 = 0.0018	797.65 ± 0.95
323.1 K, 20000 kPa, x1 = 0.0018	798.39 ± 0.96
323.11 K, 1000 kPa, x1 = 0.0112	799.52 ± 0.72
323.11 K, 1000 kPa, x1 = 0.0142	804.17 ± 0.62
323.11 K, 2000 kPa, x1 = 0.0112	800.32 ± 0.72
323.11 K, 2000 kPa, x1 = 0.0142	804.99 ± 0.63
323.11 K, 3000 kPa, x1 = 0.0112	801.16 ± 0.72
323.11 K, 3000 kPa, x1 = 0.0142	805.81 ± 0.63
323.11 K, 4000 kPa, x1 = 0.0112	801.99 ± 0.73
323.11 K, 4000 kPa, x1 = 0.0142	806.63 ± 0.64
323.11 K, 5000 kPa, x1 = 0.0112	802.82 ± 0.73
323.11 K, 5000 kPa, x1 = 0.0142	807.51 ± 0.64
323.11 K, 6000 kPa, x1 = 0.0112	803.66 ± 0.73
323.11 K, 6000 kPa, x1 = 0.0142	808.3 ± 0.64
323.11 K, 7000 kPa, x1 = 0.0112	804.52 ± 0.73
323.11 K, 7000 kPa, x1 = 0.0142	809.14 ± 0.64
323.11 K, 8000 kPa, x1 = 0.0112	805.34 ± 0.73
323.11 K, 8000 kPa, x1 = 0.0142	809.97 ± 0.65
323.11 K, 9000 kPa, x1 = 0.0112	806.15 ± 0.74
323.11 K, 9000 kPa, x1 = 0.0142	810.81 ± 0.65
323.11 K, 10000 kPa, x1 = 0.0112	807.01 ± 0.74
323.11 K, 10000 kPa, x1 = 0.0142	811.64 ± 0.65
323.11 K, 11000 kPa, x1 = 0.0112	807.85 ± 0.74
323.11 K, 11000 kPa, x1 = 0.0142	812.47 ± 0.65
323.11 K, 12000 kPa, x1 = 0.0112	808.67 ± 0.74
323.11 K, 12000 kPa, x1 = 0.0142	813.28 ± 0.66
323.11 K, 13000 kPa, x1 = 0.0112	809.47 ± 0.74
323.11 K, 13000 kPa, x1 = 0.0142	814.1 ± 0.66
323.11 K, 14000 kPa, x1 = 0.0112	810.29 ± 0.75
323.11 K, 14000 kPa, x1 = 0.0142	814.89 ± 0.66
323.11 K, 15000 kPa, x1 = 0.0112	811.07 ± 0.75
323.11 K, 15000 kPa, x1 = 0.0142	815.69 ± 0.67
